In PubChem BioAssay (NCI):
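96-well plates; 48 h exposure; 5 concentrations. Endpoints by linear interpolation between flanking doses. Not reached: highest tested concentration assigned. Here, GI50 denotes the concentration required for 50% inhibition of growth. TGI: concentration producing complete growth inhibition.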

Key:
Assay in all cases: growth of human tumour cells (NCI), 48 h
NCI-H522 lung = tested on: NCI-H522 lung
A549 NSCLC = tested on: A549 NSCLC
SR leukemia = tested on: SR leukemia
KM12 colon = tested on: KM12 colon
CAKI-1 renal = tested on: CAKI-1 renal
MALME-3M melanoma = tested on: MALME-3M melanoma
SF-295 CNS = tested on: SF-295 CNS
NCI-H460 lung = tested on: NCI-H460 lung
ACHN renal = tested on: ACHN renal
SW-620 colon = tested on: SW-620 colon
RXF 393 renal = tested on: RXF 393 renal
MOLT-4 leukemia = tested on: MOLT-4 leukemia
HOP-62 NSCLC = tested on: HOP-62 NSCLC
HOP-92 NSCLC = tested on: HOP-92 NSCLC
COLO 205 colon = tested on: COLO 205 colon
BT-549 breast = tested on: BT-549 breast
MDA-MB-435 = tested on: MDA-MB-435
RPMI-8226 leukemia = tested on: RPMI-8226 leukemia
UACC-257 melanoma = tested on: UACC-257 melanoma
U251 CNS = tested on: U251 CNS
A498 renal = tested on: A498 renal
EKVX NSCLC = tested on: EKVX NSCLC
HCT-116 colon = tested on: HCT-116 colon
UO-31 renal = tested on: UO-31 renal
OVCAR-8 ovarian = tested on: OVCAR-8 ovarian
SF-268 CNS = tested on: SF-268 CNS
IGROV1 ovarian = tested on: IGROV1 ovarian
HS 578T breast = tested on: HS 578T breast
HT29 colon = tested on: HT29 colon
SK-MEL-2 melanoma = tested on: SK-MEL-2 melanoma
SF-539 CNS = tested on: SF-539 CNS
HCT-15 colon = tested on: HCT-15 colon
786-0 renal = tested on: 786-0 renal
NCI/ADR-RES ovarian = tested on: NCI/ADR-RES ovarian
K-562 leukemia = tested on: K-562 leukemia
SK-MEL-5 melanoma = tested on: SK-MEL-5 melanoma
TK-10 renal = tested on: TK-10 renal
PC-3 prostate = tested on: PC-3 prostate
HCC-2998 colon = tested on: HCC-2998 colon
M14 melanoma = tested on: M14 melanoma
HL-60(TB) leukemia = tested on: HL-60(TB) leukemia
SK-MEL-28 melanoma = tested on: SK-MEL-28 melanoma
SN12C renal = tested on: SN12C renal
OVCAR-4 ovarian = tested on: OVCAR-4 ovarian
MDA-MB-231 breast = tested on: MDA-MB-231 breast
NCI-H226 lung = tested on: NCI-H226 lung
SNB-19 CNS = tested on: SNB-19 CNS
T-47D breast = tested on: T-47D breast
MCF7 breast = tested on: MCF7 breast
OVCAR-5 ovarian = tested on: OVCAR-5 ovarian
CCRF-CEM leukemia = tested on: CCRF-CEM leukemia
SK-OV-3 ovarian = tested on: SK-OV-3 ovarian
NCI-H23 lung = tested on: NCI-H23 lung
SNB-75 CNS = tested on: SNB-75 CNS
DU-145 prostate = tested on: DU-145 prostate

CCCCNNC(=O)c1ccc(-c2cccc(F)c2F)cc1
GI50 (NCI-H522 lung): 2.3 µM | TGI (NCI-H522 lung): 20.7 µM | GI50 (A549 NSCLC): 3.36 µM | TGI (A549 NSCLC): 18.4 µM | GI50 (SR leukemia): 1.77 µM | TGI (SR leukemia): 57.3 µM | GI50 (KM12 colon): 4.04 µM | TGI (KM12 colon): 16.1 µM | GI50 (CAKI-1 renal): 2.76 µM | TGI (CAKI-1 renal): 6.02 µM | GI50 (MALME-3M melanoma): 0.613 µM | TGI (MALME-3M melanoma): 5.28 µM | GI50 (SF-295 CNS): 2 µM | TGI (SF-295 CNS): 4.78 µM | GI50 (NCI-H460 lung): 2.71 µM | TGI (NCI-H460 lung): 21.3 µM | GI50 (ACHN renal): 2.3 µM | TGI (ACHN renal): 7.06 µM | GI50 (SW-620 colon): 2.92 µM | TGI (SW-620 colon): 12.5 µM | GI50 (RXF 393 renal): 1.31 µM | TGI (RXF 393 renal): 3.67 µM | GI50 (MOLT-4 leukemia): 2.49 µM | TGI (MOLT-4 leukemia): > 100 µM | GI50 (HOP-62 NSCLC): 3.09 µM | TGI (HOP-62 NSCLC): > 100 µM | GI50 (HOP-92 NSCLC): 1.04 µM | TGI (HOP-92 NSCLC): 5.67 µM | GI50 (COLO 205 colon): 1.82 µM | TGI (COLO 205 colon): 5.56 µM | GI50 (BT-549 breast): 5.11 µM | TGI (BT-549 breast): > 100 µM | GI50 (MDA-MB-435): 2.23 µM | TGI (MDA-MB-435): 8.25 µM | GI50 (RPMI-8226 leukemia): 0.8 µM | TGI (RPMI-8226 leukemia): 7.88 µM | GI50 (UACC-257 melanoma): 1.39 µM | TGI (UACC-257 melanoma): 31.3 µM | GI50 (U251 CNS): 2.58 µM | TGI (U251 CNS): 15.2 µM | GI50 (A498 renal): 1.04 µM | TGI (A498 renal): 2.92 µM | GI50 (EKVX NSCLC): 3.32 µM | TGI (EKVX NSCLC): 56.3 µM | GI50 (HCT-116 colon): 2.57 µM | TGI (HCT-116 colon): 11.4 µM | GI50 (UO-31 renal): 1.78 µM | TGI (UO-31 renal): 7.25 µM | GI50 (OVCAR-8 ovarian): 1.49 µM | TGI (OVCAR-8 ovarian): > 100 µM | GI50 (SF-268 CNS): 4.26 µM | TGI (SF-268 CNS): 18.7 µM | GI50 (IGROV1 ovarian): 2.02 µM | TGI (IGROV1 ovarian): 11.1 µM | GI50 (HS 578T breast): 2.44 µM | TGI (HS 578T breast): 82.4 µM | GI50 (HT29 colon): 2.58 µM | TGI (HT29 colon): > 100 µM | GI50 (SK-MEL-2 melanoma): 3.1 µM | TGI (SK-MEL-2 melanoma): 53.6 µM | GI50 (SF-539 CNS): 3.19 µM | TGI (SF-539 CNS): 65.6 µM | GI50 (HCT-15 colon): 3.08 µM | TGI (HCT-15 colon): 17 µM | GI50 (786-0 renal): 3.75 µM | TGI (786-0 renal): 18.9 µM | GI50 (NCI/ADR-RES ovarian): 0.999 µM | TGI (NCI/ADR-RES ovarian): 6.67 µM | GI50 (K-562 leukemia): 1.29 µM | TGI (K-562 leukemia): > 100 µM | GI50 (SK-MEL-5 melanoma): 1.8 µM | TGI (SK-MEL-5 melanoma): 3.71 µM | GI50 (TK-10 renal): 0.959 µM | TGI (TK-10 renal): 7.9 µM | GI50 (PC-3 prostate): 3.56 µM | TGI (PC-3 prostate): 27.4 µM | GI50 (HCC-2998 colon): 1.48 µM | TGI (HCC-2998 colon): 4.11 µM | GI50 (M14 melanoma): 2.93 µM | TGI (M14 melanoma): 20.8 µM | GI50 (HL-60(TB) leukemia): 1.07 µM | TGI (HL-60(TB) leukemia): 16.1 µM | GI50 (SK-MEL-28 melanoma): 2.75 µM | TGI (SK-MEL-28 melanoma): 63.7 µM | GI50 (SN12C renal): 4.29 µM | TGI (SN12C renal): 79.9 µM | GI50 (OVCAR-4 ovarian): 4.03 µM | TGI (OVCAR-4 ovarian): > 100 µM | GI50 (MDA-MB-231 breast): 5.49 µM | TGI (MDA-MB-231 breast): 34.3 µM | GI50 (NCI-H226 lung): 2.58 µM | TGI (NCI-H226 lung): 17.1 µM | GI50 (SNB-19 CNS): 3.23 µM | TGI (SNB-19 CNS): 19.8 µM | GI50 (T-47D breast): 1.14 µM | TGI (T-47D breast): > 100 µM | GI50 (MCF7 breast): 0.776 µM | TGI (MCF7 breast): 17.5 µM | GI50 (OVCAR-5 ovarian): 2.02 µM | TGI (OVCAR-5 ovarian): 16.7 µM | GI50 (CCRF-CEM leukemia): 3.08 µM | TGI (CCRF-CEM leukemia): > 100 µM | GI50 (SK-OV-3 ovarian): 4.12 µM | TGI (SK-OV-3 ovarian): 42.5 µM | GI50 (NCI-H23 lung): 2.39 µM | TGI (NCI-H23 lung): 18.2 µM | GI50 (SNB-75 CNS): 0.894 µM | TGI (SNB-75 CNS): 8.29 µM | GI50 (DU-145 prostate): 2.43 µM | TGI (DU-145 prostate): 43.8 µM
